This is an account of results in US8809386B2, “Use of dynamin ring stabilizers” (Children's Medical Research Institute, priority 2009, dated 2014).

The subject of assay [1] is Human lymphoblasts (which express dynamin II). Put plainly: EM analysis of clathrin coated pits in human lymphoblasts. The class given is cell-based. Particulars: 30 min (Bis-T-22 100 μM), FIG. 10A. From the text: When vesicles are endocytosed via the clathrin-dependent pathway, they are well known to be internalised as omega shaped figures close to the plasma membrane with partially constricted and short necks. These can be detected by transmission electron microscopy (EM) at a low frequency.

For assay [2], the system named is rat brain synaptosomes. Put plainly: EM analysis of endocytic pits in KCl-depolarised rat brain synaptosomes. The format is cell-based. The conditions noted are these: 30 min (100 μM), depolarised with KCl, FIG. 10B. From the text: When vesicles are endocytosed via the clathrin-dependent pathway, they are well known to be internalised as omega shaped figures close to the plasma membrane with partially constricted and short necks. These can be detected by transmission electron microscopy (EM) at a low frequency. […] In contrast to these observations, a dynamin ring stabilizer causes accumulation of clathrin coated pits in cells with two distinctive features: the vesicle necks are highly elongated and are encircled by electron dense rings. […] No rings or trapped vesicles were detected when the synaptosomes were unstimulated (FIG. 10B top). This mimics the in vitro observations on purified dynamin I described earlier which forms single rings (FIG. 9).

The target of assay [3] is T1, full length dynamin I (UniProt Q05193).
T1 construct: rows headed: basal rate of GTP hydrolysis of dynamin
T1 sequence (Q05193 1-864): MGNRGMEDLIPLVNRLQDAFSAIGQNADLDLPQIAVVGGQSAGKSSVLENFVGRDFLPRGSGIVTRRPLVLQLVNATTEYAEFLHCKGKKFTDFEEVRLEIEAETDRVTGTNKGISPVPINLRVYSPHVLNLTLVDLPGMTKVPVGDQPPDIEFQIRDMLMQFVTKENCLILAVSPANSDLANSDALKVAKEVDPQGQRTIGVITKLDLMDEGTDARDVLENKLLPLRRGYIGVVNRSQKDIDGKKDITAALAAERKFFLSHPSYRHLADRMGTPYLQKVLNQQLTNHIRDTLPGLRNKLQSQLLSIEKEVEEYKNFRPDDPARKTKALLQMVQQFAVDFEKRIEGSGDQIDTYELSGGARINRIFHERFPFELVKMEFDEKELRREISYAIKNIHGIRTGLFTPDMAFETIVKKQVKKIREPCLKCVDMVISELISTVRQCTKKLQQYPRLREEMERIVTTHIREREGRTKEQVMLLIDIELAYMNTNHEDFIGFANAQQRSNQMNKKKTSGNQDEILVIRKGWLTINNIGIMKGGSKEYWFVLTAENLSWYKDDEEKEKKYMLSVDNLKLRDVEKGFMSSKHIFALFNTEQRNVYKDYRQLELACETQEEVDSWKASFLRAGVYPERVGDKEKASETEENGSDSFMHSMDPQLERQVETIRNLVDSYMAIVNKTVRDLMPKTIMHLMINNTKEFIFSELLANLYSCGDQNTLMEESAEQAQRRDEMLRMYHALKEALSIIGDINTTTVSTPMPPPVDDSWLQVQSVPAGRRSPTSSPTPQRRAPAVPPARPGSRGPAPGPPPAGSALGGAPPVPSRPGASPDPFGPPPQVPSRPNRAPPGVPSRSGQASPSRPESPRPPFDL
Description: Basal dynamin GTPase activity in the absence of PS liposomes or other template (ring stabilizer activity). The class given is biochemical, sheep. The conditions noted are these: 0.2 μM dyn1, 7 μM compound, 10 μM Gsn-F-actin complexes, FIG. 18.

For assay [4], the system named is dynamin I. Put plainly: Dynamin self-assembly assay, high speed centrifugation at decreasing NaCl. The class given is biochemical. The conditions noted are these: dynamin 520 nM. On the procedure: This dynamin self-assembly assay was performed with native dynamin ([…]) using the Hepes column buffer described above in Example 1.1, (with the addition of 1% DMSO as described above). Bis-T effects were measured by pre-incubating the dynamin with the indicated Bis-T concentrations for 10 min at room temperature (22° C.). NaCl concentrations were varied from a stock in 200 mM NaCl. After the incubation the tubes were transferred to a TLA120.2 rotor (Beckman) and centrifuged in a tabletop ultracentrifuge (Optima TLX, Beckman) at 100,000 g for 20 min, and the supernatants (S) and pellets (P) were collected, precipitated with trichloracetic acid, solubilised in SDS sample buffer and separated on SDS gels.
A block in ring disassembly should be manifested as an accumulation of rings in vitro. Dynamin self-assembles into rings in the absence of any cofactors when the buffer ionic strength is decreased (Song et al. 2004). To determine whether Bis-T compounds regulate dynamin-dynamin interactions a well-established method of high speed centrifugation in decreasing amounts of NaCl to collect rings in the pellet (Warnock et al. 1996) was used. Higher concentrations of dynamin (520 nM) and dynamin was visualized by Coomassie staining on SDS gels (FIG. 6). As reported by others, dynamin is in the supernatant at ≧40 mM NaCl, but self-assembled at ≦20 mM NaCl and is found in the pellet. […]

Assay [5] deals with truncated dynamin I construct known as GG2. Put plainly: Basal GTPase activity of assembly-incompetent dynamin construct GG2. Particulars: FIG. 5. The format is biochemical. From the text:
FIG. 5 is a graph showing the basal GTPase activity of the truncated dynamin I construct known as GG2, containing only the GTPase domain linked to a small part of the GED domain (Chappie et al 2009). Unlike full length dynamin this construct is known to be unable to self-assemble or to form rings. Bis-T-22 and -23 and imminodyn-22 have no effect on the basal activity of this assembly-incompetent construct.
To verify that ring stabilizers require dynamin oligomerisation, a recombinant form of dynamin, called GG-2, which is dimeric yet is unable to self-associate into higher order oligomers (Chappie et al 2009) was tested. Ring stabilizers are unable to stimulate the basal activity of such constructs (FIG. 5).

Take `N#C/C(=C\c1ccc(O)c(O)c1)C(=O)NCCCNC(=O)/C(C#N)=C/c1ccc(O)c(O)c1` [Bis-T-22, 2-cyano-N-{3-[2-cyano-3-(3,4-dihydroxyphenyl)-acryloylamino]-propyl}-3-(3,4-dihydroxyphenyl)-acrylamide]: the “clathrin coated pits by EM” value in assay [1] was “massive accumulation in all cells of clathrin coated pits with highly elongated necks”. In addition, in assay [2], the “trapped endocytic pits by EM” value is reported as “trapped endocytic pits were detected that were encircled by a single electron dense ring”. Besides, the “basal rate of GTP hydrolysis of dynamin” value in assay [3] was “stimulates dynamin's basal rate of GTP hydrolysis”. The “dynamin ring assembly (dynamin in pellet)” value in assay [4] (100 μM, intermediate salt concentrations) was “increased ring assembly”; in assay [4] (300 μM, fixed 40 mM NaCl), “promoted all dynamin to form rings”. Besides, the “effect on basal GTPase activity of GG2” value in assay [5] was “no effect”.
